This is an account of results in patent US8642622B2, “Piperidinyl compound as a modulator of chemokine receptor activity” (Bristol-Myers Squibb Company, priority 2010, dated 2014).

The structures appear in SMILES notation.

A short description of data set [1]: Single-dose pharmacokinetics in rats. Format: in vivo. Particulars: for clearance / bioavailability: male, Sprague-Dawley, rat, plasma; for clearance: intravenous; for bioavailability: po. As to the method: Serial blood samples were collected for all studies from the jugular vein at various time points post dose (0.17 (or 0.25 for oral), 0.5, 0.75, 1, 2, 4, 6, 8 and 24 h, for example). Plasma samples were analyzed by LC-MS/MS.
Additional studies evaluating suspensions of crystalline drug substance in aqueous medium were performed as described above.

Data set [2] addresses T1, human cardiac sodium channel, SCNSA (Homo sapiens, UniProt Q14524).
T1 construct: expressed in transfected cells; host or cells: HEK-293
Kind of data set: Sodium channel whole-cell patch-clamp assay. Format: cell-based. As to conditions: HEK293, HEK-293, protein-free buffer, read-out: Na channel, % inh. As to the method:
Whole-cell patch-clamp was used to directly measure inward sodium currents in HEK-293 cells expressing the human cardiac sodium channel, SCNSA. After reach steady-state effect in the presence of drug, rate-dependence was assessed by stimulation at frequencies of 1 Hz and 4 Hz. Experiments were carried out using an aqueous buffer at pH 7.4 and at room temperature. There is no protein in the buffer and drug concentrations reported are nominal free drug levels. Test article was evaluated up to 10 μM (protein-free buffer). […] Data is reported as percent inhibition at a fixed concentration.
On the technique in general: Patch clamp records ionic current or voltage across a cell membrane.

Data set [3] is described as follows: Electrocardiography in anesthetized rabbits (rabbit in vivo EP effect). Particulars: for QT effect Dose: i.v. infusion 3, 10, 30 mg/kg; for QTcf, delta: change from pre-drug baseline. As to the method:
A dose-response study of test compound was conducted in anesthetized rabbits to assess the cardiac electrophysiologic profile established in the cellular ion channel assays.
Experiments were performed in propofol-fentanyl anesthetized closed-chest male rabbits. A body surface electrocardiogram (ECG) and an intra-cardiac His-bundle electrogram were continuously monitored and recorded during the studies, using a PoNeMah system and a Prucka electrophysiological recording system, respectively. Test compound was prepared on the day of study in a vehicle of PEG400:ethanol:water (1:1:1) at a dosing concentration of 30 mg/mL. Test compound (n=3) or vehicle (n=3) was given intravenously over 5 minutes via an infusion pump at incremental doses of 3, 10 and 30 mg/kg. The interval between doses was 10 minutes, allowing for a 5-minute test agent infusion and a 5-minute rest period. Blood was sampled at baseline (pre-drug infusion) and immediately at the end of each infusion. For the 30 mg/kg dose, additional blood samples were taken at 10, 20 and 30 minutes after the end of infusion.
PR interval, QRS duration and QT interval were averaged from a 1 minute ECG recording period at time of blood sampling. QT interval was corrected for heart rate effects using both Fridericia (QTcf) and Van der Water (QTcv) formulae. AH and HV intervals, representing A-V node conduction and His-Purkinje conduction, respectively, were assessed by manual measurements from the His-bundle electrogram. Data were expressed as percent change from pre-drug baseline (mean±SEM) for PR, QRS, AH and HV intervals as well as delta change from the pre-drug infusion baseline (mean±SEM) for QTc intervals. Changes of 10% in PR, QRS, and AH intervals, and 20% in HV interval, as well as >10 ms in QTc interval are considered significant based on experience with the model.

Data set [4] is described as follows: Single-dose pharmacokinetics in dogs. It is filed as in vivo. Particulars: for clearance: intravenous. How it is done: Serial blood samples were collected for all studies at various time points post dose (0.17 (or 0.25 for oral), 0.5, 0.75, 1, 2, 4, 6, 8 and 24 h, for example). Plasma samples were analyzed by LC-MS/MS.
Where [5] appears, read: crystalline suspension in aqueous medium, read-out: Relative bioavailability when dosed as a crystalline suspension.

T1 sequence (Q14524 whole entry): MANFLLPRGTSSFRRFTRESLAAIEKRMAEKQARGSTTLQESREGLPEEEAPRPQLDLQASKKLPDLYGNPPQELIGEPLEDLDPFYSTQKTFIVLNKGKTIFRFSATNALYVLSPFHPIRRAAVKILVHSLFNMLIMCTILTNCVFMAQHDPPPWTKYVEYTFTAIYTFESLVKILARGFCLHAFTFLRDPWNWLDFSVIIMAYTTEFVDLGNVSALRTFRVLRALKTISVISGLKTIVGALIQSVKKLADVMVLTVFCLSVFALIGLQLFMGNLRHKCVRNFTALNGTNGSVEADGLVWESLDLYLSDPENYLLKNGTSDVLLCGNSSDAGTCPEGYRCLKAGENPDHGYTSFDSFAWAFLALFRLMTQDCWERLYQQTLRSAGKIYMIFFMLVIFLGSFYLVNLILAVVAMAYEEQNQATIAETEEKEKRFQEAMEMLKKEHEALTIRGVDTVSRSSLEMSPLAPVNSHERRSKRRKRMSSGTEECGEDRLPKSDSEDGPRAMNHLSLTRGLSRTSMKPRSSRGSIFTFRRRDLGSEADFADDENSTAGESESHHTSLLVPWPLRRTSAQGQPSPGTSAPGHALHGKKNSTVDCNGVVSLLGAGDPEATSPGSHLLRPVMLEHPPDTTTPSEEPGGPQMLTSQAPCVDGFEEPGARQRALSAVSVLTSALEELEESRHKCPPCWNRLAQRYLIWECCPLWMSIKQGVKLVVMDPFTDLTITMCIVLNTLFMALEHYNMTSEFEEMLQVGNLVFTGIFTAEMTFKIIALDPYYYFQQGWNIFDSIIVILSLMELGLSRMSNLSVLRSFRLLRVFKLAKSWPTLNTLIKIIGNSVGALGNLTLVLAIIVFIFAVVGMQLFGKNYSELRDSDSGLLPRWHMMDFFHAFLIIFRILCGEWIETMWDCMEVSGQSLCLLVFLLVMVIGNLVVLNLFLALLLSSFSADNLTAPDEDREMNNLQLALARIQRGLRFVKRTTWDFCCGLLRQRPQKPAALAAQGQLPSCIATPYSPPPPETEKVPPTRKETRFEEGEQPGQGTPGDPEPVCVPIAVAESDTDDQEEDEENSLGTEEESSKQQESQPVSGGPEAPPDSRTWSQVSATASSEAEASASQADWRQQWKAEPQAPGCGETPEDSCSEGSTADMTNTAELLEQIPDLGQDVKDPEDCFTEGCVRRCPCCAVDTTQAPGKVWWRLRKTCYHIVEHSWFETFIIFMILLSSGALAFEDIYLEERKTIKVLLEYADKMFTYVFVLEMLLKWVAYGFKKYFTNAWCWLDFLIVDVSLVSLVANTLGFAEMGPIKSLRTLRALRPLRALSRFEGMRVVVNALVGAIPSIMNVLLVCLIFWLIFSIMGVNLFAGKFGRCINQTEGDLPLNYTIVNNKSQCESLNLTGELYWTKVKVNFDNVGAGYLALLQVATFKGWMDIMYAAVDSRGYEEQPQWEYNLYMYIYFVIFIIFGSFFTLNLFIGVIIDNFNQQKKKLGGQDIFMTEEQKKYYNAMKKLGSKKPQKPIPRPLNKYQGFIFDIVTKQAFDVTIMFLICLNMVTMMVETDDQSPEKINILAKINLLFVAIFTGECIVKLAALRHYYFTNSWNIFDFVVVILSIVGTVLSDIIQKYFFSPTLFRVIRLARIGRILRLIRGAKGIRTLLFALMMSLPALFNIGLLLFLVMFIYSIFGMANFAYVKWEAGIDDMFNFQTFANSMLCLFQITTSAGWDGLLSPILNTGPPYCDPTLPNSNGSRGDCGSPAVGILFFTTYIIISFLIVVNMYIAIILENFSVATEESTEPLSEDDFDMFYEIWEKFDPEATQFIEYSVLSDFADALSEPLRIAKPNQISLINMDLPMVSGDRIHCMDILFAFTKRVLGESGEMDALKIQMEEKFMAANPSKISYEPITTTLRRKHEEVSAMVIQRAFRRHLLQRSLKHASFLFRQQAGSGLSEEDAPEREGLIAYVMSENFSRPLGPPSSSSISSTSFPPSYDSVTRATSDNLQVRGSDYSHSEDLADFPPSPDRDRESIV

By clearance is commonly meant the rate of elimination divided by the concentration. One may read the bioavailability as dose-corrected exposure relative to a reference, in per cent. On to `CC(C)[C@@H](NC(=O)c1cccc(S(N)(=O)=O)c1)C(=O)N1CC[C@](O)(c2ccc(Cl)cc2)C(C)(C)C1` [Example 491], for which the clearance in data set [1] was 67 mL/min/kg. Moreover, in data set [1] (setting [5]), the bioavailability was determined as 0%. Also, in data set [1] (oral solution, read-out: Rat oral bioavailability when dosed as solution), the bioavailability was 23%. For the same compound, the inhibition at 10 µM in data set [2] was 13%. Further, in data set [3], the “Cmax: Free drug (at NOEL dose)” value stood at 3.1 µM, the “Cmax: Free drug (at QT effect dose)” value was 5.5 µM and the “QT effect Dose” value is on record as 30 mg/kg. Moreover, in data set [3] (i.v. infusion), the NOEL dose is 10 mg/kg and the “QTcf, delta” value is “+17 ms”. Besides, the clearance in data set [4] (male, beagle, dog, plasma) was 7.9 mL/min/kg. Also, in data set [4] (male, beagle, plasma, dog, oral solution, read-out: dog oral bioavailability when dosed as solution), the bioavailability amounted to 100%.

Consider `CC(C)[C@@H](NC(=O)[C@@H]1CC[C@@H](O)C1)C(=O)N1CC[C@](O)(c2ccc(Cl)cc2)C(C)(C)C1` [Example 572], for which the clearance in data set [1] amounted to 29 mL/min/kg. The bioavailability in data set [1] (setting [5]) is greater than 90%. Further, the “Rat oral bioavailability when dosed as solution” value in data set [1] (oral solution) is on record as 37%. Moreover, in data set [2], the inhibition at 10 µM is 25%. Besides, in data set [3], the “Cmax: Free drug (at NOEL dose)” value was less than 6.3 µM, the “Cmax: Free drug (at QT effect dose)” value was 6.3 µM and the “QT effect Dose” value is on record as 10 mg/kg. Besides, the “QTcf, delta” value in data set [3] (i.v. infusion) is on record as “+22 ms”. The clearance in data set [4] (male, beagle, dog, plasma) worked out at 4.9 mL/min/kg. Besides, the “dog oral bioavailability when dosed as solution” value in data set [4] (oral solution) was 72.
